# Test results from ChEMBL document CHEMBL1806422, “Effects of C7 substitutions in a high affinity microtubule-binding taxane on antitumor activity and drug transport” (Bioorg Med Chem Lett, 2011).
# Key:
# [1] = Binding affinity to purified p-glycoprotein by fluorescence quenching assay
# [2] = Binding affinity to microtubule after 30 mins by epothilone-B competition binding assay
# A2780 [3] = assay: Cytotoxicity against human A2780 cells after 48 hrs by MTT assay; format: functional, cell-based; settings: A2780, 48 h
# [4] = Cytotoxicity against multidrug-resistant human A2780AD cells overexpressing p-gp after 48 hrs by MTT assay; format: functional, cell-based; settings: A2780 ADR
# A2780 [5] = assay: Resistant index, ratio of IC50 for multidrug-resistant human A2780AD cells overexpressing p-gp to IC50 for human A2780 cells; format: functional
# [6] = Apparent permeability from apical to basolateral side of human Caco2 cells at 10 uM by LC/MS/MS analysis; format: ADME, cell-based; settings: Caco-2
# [7] = Apparent permeability from basolateral to apical side of human Caco2 cells at 10 uM by LC/MS/MS analysis; format: ADME, cell-based; settings: Caco-2
# [8] = Efflux ratio of permeability from basolateral to apical side to apical to basolateral side in human Caco2 cells at 10 uM by LC/MS/MS analysis; format: ADME, cell-based; settings: Caco-2
Kd [1],Kd [2],Papp A→B at 10 µM [6],Papp B→A at 10 µM [7],efflux ratio at 10 µM [8],SMILES,IC50 (A2780 [3]),IC50 [4],Ratio IC50 (A2780 [5])
498 nM,1.1 nM,0.095 ×10⁻⁶ cm/s,0.265 ×10⁻⁶ cm/s,2.79,C/C=C(\C)C(=O)N[C@@H](c1ccccc1)[C@@H](O)C(=O)O[C@H]1C[C@@]2(O)[C@@H](OC(=O)c3cccc(N=[N+]=[N-])c3)[C@@H]3[C@]4(OC(C)=O)CO[C@@H]4C[C@H](OC(=O)CC)[C@@]3(C)C(=O)[C@H](O)C(=C1C)C2(C)C,2.7 nM,14 nM,5.2
2150 nM,0.95 nM,7.35 ×10⁻⁶ cm/s,9.4 ×10⁻⁶ cm/s,1.28,C/C=C(\C)C(=O)N[C@@H](c1ccccc1)[C@@H](O)C(=O)O[C@H]1C[C@@]2(O)[C@@H](OC(=O)c3cccc(N=[N+]=[N-])c3)[C@@H]3[C@]4(OC(C)=O)CO[C@@H]4C[C@H](OC(=O)C4CC4)[C@@]3(C)C(=O)[C@H](O)C(=C1C)C2(C)C,22 nM,293 nM,13.3
2380 nM,1.48 nM,4.19 ×10⁻⁶ cm/s,27 ×10⁻⁶ cm/s,6.44,C/C=C(\C)C(=O)N[C@@H](c1ccccc1)[C@@H](O)C(=O)O[C@H]1C[C@@]2(O)[C@@H](OC(=O)c3cccc(N=[N+]=[N-])c3)[C@@H]3[C@]4(OC(C)=O)CO[C@@H]4C[C@H](OC(=O)CN(C)C)[C@@]3(C)C(=O)[C@H](O)C(=C1C)C2(C)C,7.2 nM,3200 nM,444.4
6340 nM,0.81 nM,1.23 ×10⁻⁶ cm/s,8.53 ×10⁻⁶ cm/s,6.93,C/C=C(\C)C(=O)N[C@@H](c1ccccc1)[C@@H](O)C(=O)O[C@H]1C[C@@]2(O)[C@@H](OC(=O)c3cccc(N=[N+]=[N-])c3)[C@@H]3[C@]4(OC(C)=O)CO[C@@H]4C[C@H](OC(=O)CNC(=O)OC(C)(C)C)[C@@]3(C)C(=O)[C@H](O)C(=C1C)C2(C)C,15.5 nM,875 nM,56.4
2750 nM,0.62 nM,0.19 ×10⁻⁶ cm/s,1.07 ×10⁻⁶ cm/s,5.63,C/C=C(\C)C(=O)N[C@@H](c1ccccc1)[C@@H](O)C(=O)O[C@H]1C[C@@]2(O)[C@@H](OC(=O)c3cccc(N=[N+]=[N-])c3)[C@@H]3[C@]4(OC(C)=O)CO[C@@H]4C[C@H](OC(=O)CCl)[C@@]3(C)C(=O)[C@H](O)C(=C1C)C2(C)C,17.2 nM,710 nM,41.2
4310 nM,0.66 nM,3 ×10⁻⁶ cm/s,6.61 ×10⁻⁶ cm/s,2.2,C/C=C(\C)C(=O)N[C@@H](c1ccccc1)[C@@H](O)C(=O)O[C@H]1C[C@@]2(O)[C@@H](OC(=O)c3cccc(N=[N+]=[N-])c3)[C@@H]3[C@]4(OC(C)=O)CO[C@@H]4C[C@H](OC(=O)CC(F)(F)F)[C@@]3(C)C(=O)[C@H](O)C(=C1C)C2(C)C,33 nM,1300 nM,39.4
1420 nM,0.9 nM,7.46 ×10⁻⁶ cm/s,12.6 ×10⁻⁶ cm/s,1.68,C/C=C(\C)C(=O)N[C@@H](c1ccccc1)[C@@H](O)C(=O)O[C@H]1C[C@@]2(O)[C@@H](OC(=O)c3cccc(N=[N+]=[N-])c3)[C@@H]3[C@]4(OC(C)=O)CO[C@@H]4C[C@H](OC(=O)OCC)[C@@]3(C)C(=O)[C@H](O)C(=C1C)C2(C)C,11.2 nM,170 nM,15.2
3150 nM,2.15 nM,2.55 ×10⁻⁶ cm/s,19.1 ×10⁻⁶ cm/s,7.48,C/C=C(\C)C(=O)N[C@@H](c1ccccc1)[C@@H](O)C(=O)O[C@H]1C[C@@]2(O)[C@@H](OC(=O)c3cccc(N=[N+]=[N-])c3)[C@@H]3[C@]4(OC(C)=O)CO[C@@H]4C[C@H](OC(=O)NC)[C@@]3(C)C(=O)[C@H](O)C(=C1C)C2(C)C,7.4 nM,1400 nM,189.2
5290 nM,2.45 nM,,,,C/C=C(\C)C(=O)N[C@@H](c1ccccc1)[C@@H](O)C(=O)O[C@H]1C[C@@]2(O)[C@@H](OC(=O)c3cccc(N=[N+]=[N-])c3)[C@@H]3[C@]4(OC(C)=O)CO[C@@H]4C[C@H](OC(=O)N(C)C)[C@@]3(C)C(=O)[C@H](O)C(=C1C)C2(C)C,26 nM,950 nM,36.5
35 nM,56 nM,0.66 ×10⁻⁶ cm/s,5.03 ×10⁻⁶ cm/s,7.62,CC(=O)O[C@H]1C(=O)[C@@]2(C)[C@H]([C@H](OC(=O)c3ccccc3)[C@]3(O)C[C@H](OC(=O)[C@H](O)[C@@H](NC(=O)c4ccccc4)c4ccccc4)C(C)=C1C3(C)C)[C@]1(OC(C)=O)CO[C@@H]1C[C@@H]2O [PACLITAXEL],0.62 nM,1900 nM,3064
,,19.2 ×10⁻⁶ cm/s,23.4 ×10⁻⁶ cm/s,1.21,CC(C)NCC(O)COc1cccc2ccccc12 (stereo not given) [PROPRANOLOL],,,
